Laboratory results from US20240327426A1, “CRYSTALLINE FORMS OF CEFTIBUTEN” (QPEX BIOPHARMA, INC., priority 2021, published 2024).

Columns and labels:
Assay type in all cases: physicochemical
[1] = Karl Fischer moisture content of ceftibuten hydrate batches; conditions: batches prepared by procedure of Example 1, dried at 30° C. in a vacuum oven
Procedure: (§1) In a reaction vessel are charged 400 mL of demineralized water, 37.0 g crude Ceftibuten and 190 mL acetone at 20-25° C. To this mixture is added with stirring a solution of 22.1 g NaHCO3 and 252.2 mL of demineralized water, keeping the pH at 6.5-6.9. The pH is then adjusted to 6.5-6.7 using 15% aqueous H2SO4. To the resulting solution are charged 13.8 g aluminum oxide, 5 g Norit charcoal, 1.5 g Na2S2O4 and 0.25 g disodium EDTA. The mixture is stirred for 20-25 min maintaining pH at 6.5-6.7 with 15% aqueous H2SO4, and is then filtered and washed with 200 mL of demineralized water. The filtrate is added over 20-30 min to a second vessel containing 630 mL water, 81 g malic acid and 175 g 15% aqueous H2SO4, maintaining the temperature at 20-25° C. After stirring for 50-70 min, the pH is adjusted to 2.9-3.1 over 20-25 min at 20-25° C. with a solution constituted by 30 g of K2CO3 and 70 g of demineralized water. This mixture is stirred for 2-2.5 hours, after which it is filtered and washed 5 times with demineralized water (250 mL each). The wet product is dried at 30° C. in a vacuum oven. Depending on the extent of drying, the resulting product may be Form A, Form B, or a mixture of Forms A and B. Three batches prepared by this procedure are shown in Table 1 below.
Karl Fischer analyses were carried out using a Mettler-Toledo C20 Coulometric KF titrator. The instrument was calibrated using a Hydranal water standard containing 1% water. The titrant was a Hydranal methanol solution.

[2] = Form stability upon storage/shipping at ambient temperature and humidity
Procedure: as §1

[3] = Moisture sorption-desorption (dynamic vapor sorption) analysis; conditions: for Crystalline form after moisture sorption-desorption analysis: 25° C., 5 to 95% RH adsorption and 95 to 5% RH desorption, 10% RH steps
Procedure: In one embodiment, moisture sorption-desorption analyses were taken after running the moisture sorption-desorption experiments. […] DVS analysis was carried out TA Instruments Q5000 Dynamic Vapor Sorption analyzer. The instrument was calibrated with standard weights and a sodium bromide standard for humidity. Samples were analyzed at 25° C. with a maximum equilibration time of 60 minutes in 10% relative humidity (RH) steps from 5 to 95% RH (adsorption cycle) and from 95 to 5% RH (desorption cycle).

[4] = Physical stability under relative humidity conditions, checked by X-ray powder diffraction
From the text: In some embodiments, Form A of the compound of Formula (I) may contain between two to three molar equivalents of water. Samples of Form A of the compound of Formula (I) were exposed to several relative humidity conditions ranging from 15% to 100% relative humidity for a period of 14 days, after which an X-ray powder diffraction was taken. In one embodiment, samples Form A of the compound of Formula (I) were exposed to several relative humidity conditions, including 15% relative humidity, 30% relative humidity, 45% relative humidity, 60% relative humidity, 75% relative humidity, and 100% relative humidity for a period of 14 days, after which an X-ray powder diffraction was taken. […] In some embodiments, Form B of the compound of Formula (I) may contain between two to three molar equivalents of water. […] X-ray diffraction was used to characterize the compound of Formula (I). A Rigaku Smart-Lab X-ray diffraction system was configured for reflection Bragg-Brentano geometry using a line source X-ray beam. The x-ray source was a Cu Long Fine Focus tube that may be operated at 40 kV and 44 mA. That source provides an incident beam profile at the sample that changes from a narrow line at high angles to a broad rectangle at low angles. […] Each sample was analyzed from 2 to 40° 2θ using a continuous scan of 6° 2θ per minute with an effective step size of 0.02° 2θ.

[5] = Differential scanning calorimetry (DSC); conditions: 25° C. to 350° C. at 10° C. per minute, nitrogen purge
Procedure: DSC analysis was carried out using a TA Instruments Q2500 Discovery Series instrument. The instrument temperature calibration was performed using indium. The DSC cell was kept under a nitrogen purge of ˜50 mL per minute during the analysis. The sample was placed in a standard, crimped, aluminum pan and was heated from approximately 25° C. to 350° C. at a rate of 10° C. per minute.

SMILES | Crystalline form change / stability upon storage/shipping [2] | Hygroscopicity [3] | Crystalline form after moisture sorption-desorption analysis [3] | Dehydration temperature during heating [5] | further results
Nc1nc(/C(=C/CC(=O)O)C(=O)N[C@@H]2C(=O)N3C(C(=O)O)=CCS[C@H]23)cs1 [Batch 1, ceftibuten] | converted from a mixture to all Form B |  |  |  | Moisture Content [1]: 9.44%
Nc1nc(/C(=C/CC(=O)O)C(=O)N[C@@H]2C(=O)N3C(C(=O)O)=CCS[C@H]23)cs1 [Batch 2, ceftibuten] |  |  |  |  | Moisture Content ([1]; listed as 2): 8.60%
Nc1nc(/C(=C/CC(=O)O)C(=O)N[C@@H]2C(=O)N3C(C(=O)O)=CCS[C@H]23)cs1 [Batch 3, ceftibuten] |  |  |  |  | Moisture Content ([1]; listed as 3): 11.68%
Nc1nc(/C(=C/CC(=O)O)C(=O)N[C@@H]2C(=O)N3C(C(=O)O)=CCS[C@H]23)cs1 [Form A, ceftibuten] |  | moderately hygroscopic | convert to Form B | approximately 100 °C | Form conversion under extremely dry conditions ([4]; 0% relative humidity): may convert to Form B; X-ray powder diffraction form after relative humidity exposure ([4]; 15%, 30%, 45%, 60%, 75% and 100% relative humidity, 14 days): match for Form A
Nc1nc(/C(=C/CC(=O)O)C(=O)N[C@@H]2C(=O)N3C(C(=O)O)=CCS[C@H]23)cs1 [Form B, ceftibuten] | increased stability | moderately hygroscopic | remain stable and unchanged | approximately 100 °C | 
